Read-outs that look alike come from different tables or passages of the source. One block for each molecule: values may come before it.
Assays:
recombinant Nampt [1] = molecular target: T1, recombinant Nampt (Homo sapiens, UniProt P43490); details: cited from earlier work
recombinant Nampt [2] = molecular target: T1, recombinant Nampt; experiment: Recombinant Nampt inhibition assay; type: biochemical; details: read-out: IC50, inhibition of recombinant Nampt activity; colorimetric assay
184A1 = experiment: MTT assay, 184A1 cells, 72 h; type: cell-based; details: read-out: IC50 (nM) ± SD (n) 184A1, 184A1 noncancerous Nampt-dependent human breast epithelium cells, n=4
[3] = continuous intravenous infusion for 4 consecutive days, patients; cited from earlier work

T1 sequence (P43490 whole entry): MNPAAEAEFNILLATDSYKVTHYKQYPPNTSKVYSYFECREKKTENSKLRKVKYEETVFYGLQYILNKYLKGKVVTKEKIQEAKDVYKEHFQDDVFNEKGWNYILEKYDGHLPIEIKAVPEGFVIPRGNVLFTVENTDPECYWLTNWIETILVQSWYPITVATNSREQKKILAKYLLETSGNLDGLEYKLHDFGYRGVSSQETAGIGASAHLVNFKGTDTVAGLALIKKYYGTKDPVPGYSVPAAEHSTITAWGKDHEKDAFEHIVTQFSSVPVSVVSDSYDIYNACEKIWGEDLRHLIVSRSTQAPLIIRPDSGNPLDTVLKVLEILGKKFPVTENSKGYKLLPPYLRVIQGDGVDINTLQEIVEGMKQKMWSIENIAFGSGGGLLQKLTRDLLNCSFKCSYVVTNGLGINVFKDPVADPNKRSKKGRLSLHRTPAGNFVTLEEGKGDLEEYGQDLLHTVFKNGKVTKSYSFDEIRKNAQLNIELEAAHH

Molecule: 1-(4′-(trans-3″-(3‴-pyridyl)acrylamido)butyl)-1,7-dicarbadodecaborane [MC4-PPEA]
IC50 (recombinant Nampt [1]; read-out: IC50, inhibition of Nampt, previously reported): 4.2 nM | fold higher Nampt inhibitory activity than FK866 (recombinant Nampt [1]; relative to FK866): ~ 100 fold

IC50 (recombinant Nampt [2]): 6.8 nM
Molecule: 1-(hydroxymethyl)-7-(4′-(trans-3″-(3′″-pyridyl)acrylamido)butyl)-1,7-dicarbadodecaborane [hm-MC4-PPEA]
IC50 (184A1): 1.9 ± 0.4 nM

Molecule: O=C(/C=C/c1cccnc1)NCCCCC1CCN(C(=O)c2ccccc2)CC1 [FK866]
dose-limiting toxicity [3]: thrombocytopenia

— article PMC5923274 (Drug Design, Development and Therapy, 2018)
